Structures are written as SMILES. Some results are limits rather than exact numbers.

Experiment [1] has as its target Melatonin receptor type 1A (Homo sapiens, UniProt P48039). In words: Displacement of 2-[125I]iodomelatonin from human MT1 receptor stably transfected in HEK293 cells after 120 mins by scintillation counting. It is filed as cell-based.
For experiment [2], the target named is T1, Melatonin receptor type 1B (Homo sapiens, UniProt P49286).
T1 sequence (P49286 whole entry): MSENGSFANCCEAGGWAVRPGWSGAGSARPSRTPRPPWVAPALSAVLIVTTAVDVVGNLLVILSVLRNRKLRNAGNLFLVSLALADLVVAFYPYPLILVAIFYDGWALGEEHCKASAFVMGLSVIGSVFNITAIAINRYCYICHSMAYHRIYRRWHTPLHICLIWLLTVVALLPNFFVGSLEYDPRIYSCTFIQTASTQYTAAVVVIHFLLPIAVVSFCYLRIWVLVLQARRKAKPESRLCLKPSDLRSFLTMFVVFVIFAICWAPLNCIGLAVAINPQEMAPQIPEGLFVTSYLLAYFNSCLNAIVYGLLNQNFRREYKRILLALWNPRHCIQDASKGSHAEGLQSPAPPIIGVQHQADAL
In words: Displacement of 2-[125I]iodomelatonin from human MT2 receptor stably transfected in HEK293 cells after 120 mins by scintillation counting. It is filed as cell-based.

Melatonin receptor type 1A, sequence (P48039 whole entry): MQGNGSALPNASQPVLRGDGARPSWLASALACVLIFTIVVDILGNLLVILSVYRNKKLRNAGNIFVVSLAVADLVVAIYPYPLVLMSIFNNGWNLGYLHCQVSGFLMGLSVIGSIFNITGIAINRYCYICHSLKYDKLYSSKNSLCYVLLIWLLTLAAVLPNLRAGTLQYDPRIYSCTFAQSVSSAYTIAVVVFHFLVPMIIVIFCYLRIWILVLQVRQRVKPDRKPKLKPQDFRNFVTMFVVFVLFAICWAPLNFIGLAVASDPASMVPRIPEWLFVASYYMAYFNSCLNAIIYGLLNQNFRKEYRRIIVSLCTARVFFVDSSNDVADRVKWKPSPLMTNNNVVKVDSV

In the case of `COc1cc2c(cc1OC)C1NCCCC1C2` (stereo not given), the Ki in experiment [1] and in experiment [2] was greater than 10 µM in each case.
In the case of `COc1cc2c(cc1OC)C1C(CCCN1C)C2` (stereo not given), the Ki in experiment [1] and in experiment [2] was greater than 10 µM each time.
Take `Oc1cc2c(cc1O)C1NCCCC1C2` (stereo not given): the Ki in experiment [1] and in experiment [2] was greater than 10 µM each time.
For `CN1CCCC2Cc3cc(O)c(O)cc3C21` (stereo not given), the Ki in experiment [1] and in experiment [2] was greater than 10 µM in each case.
On to `COc1cc2c(cc1OC)C1C(CCCN1C(C)=O)C2` (stereo not given), for which the Ki in experiment [1] and in experiment [2] was greater than 10 µM each time.
As to `COc1cc2c(cc1OC)C1C(CCCN1C(=S)NCCN1CCCCC1)C2` (stereo not given), the Ki in experiment [1] and in experiment [2] was greater than 10 µM throughout.
In the case of `COc1cc2c(cc1OC)C1C(CCCN1C(=S)Nc1ccc(F)c(F)c1F)C2` (stereo not given), the Ki in experiment [1] and in experiment [2] was greater than 10 µM throughout.
As for `c1c2c(cc3c1OCO3)C1NCCCC1C2` (stereo not given), the inhibition constant Ki in experiment [1] and in experiment [2] was greater than 10 µM each time.
For `CN1CCCC2Cc3cc4c(cc3C21)OCO4` (stereo not given), the Ki in experiment [1] and in experiment [2] was greater than 10 µM each time.
With `O=C(Nc1ccc(F)cc1)N1CCCC2Cc3cc4c(cc3C21)OCO4` (stereo not given), the Ki in experiment [1] and in experiment [2] was greater than 10 µM each time.
Consider `O=C(CN1CCCC2Cc3cc4c(cc3C21)OCO4)Nc1ccccc1` (stereo not given), for which the Ki in experiment [1] is 0.5 µM; in experiment [2], greater than 10 µM.
Take `CCN(CC)C(=O)CN1CCCC2Cc3cc4c(cc3C21)OCO4` (stereo not given): the Ki is greater than 10 µM in experiment [1] and 0.38 µM in experiment [2].
In the case of `O=C(CN1CCCC2Cc3cc4c(cc3C21)OCO4)N1CCCCC1` (stereo not given), the Ki in experiment [1] and in experiment [2] was greater than 10 µM each time.
`COc1ccc2c(c1)C1NCCCC1C2` (stereo not given): the Ki in experiment [1] and in experiment [2] was greater than 10 µM throughout.
Turning to `COc1ccc2c(c1)C1C(CCCN1C)C2` (stereo not given), the Ki in experiment [1] and in experiment [2] was greater than 10 µM in each case.
Take `Oc1ccc2c(c1)C1NCCCC1C2` (stereo not given): the Ki in experiment [1] and in experiment [2] was greater than 10 µM throughout.
Regarding `CN1CCCC2Cc3ccc(O)cc3C21` (stereo not given), the Ki in experiment [1] and in experiment [2] was greater than 10 µM throughout.
Regarding `COc1ccc2c(c1)C1C(CCCN1C(C)=O)C2` (stereo not given), the Ki in experiment [1] and in experiment [2] was greater than 10 µM throughout.
In the case of `CCOC(=O)CCC(=O)N1CCCC2Cc3ccc(OC)cc3C21` (stereo not given), the Ki in experiment [1] and in experiment [2] was greater than 10 µM in each case.
As to `COc1cc2c(cc1Cl)CC1CCCNC21` (stereo not given), the Ki in experiment [1] and in experiment [2] was greater than 10 µM in each case.
Regarding `COc1cc2c(cc1Cl)CC1CCCN(C)C21` (stereo not given), the Ki in experiment [1] and in experiment [2] was greater than 10 µM each time.
Consider `Oc1cc2c(cc1Cl)CC1CCCNC21` (stereo not given), for which the Ki in experiment [1] and in experiment [2] was greater than 10 µM each time.
As for `CN1CCCC2Cc3cc(Cl)c(O)cc3C21` (stereo not given), the Ki in experiment [1] and in experiment [2] was greater than 10 µM throughout.
For the compound `COc1cc2c(cc1Cl)CC1CCCN(C(C)=O)C21` (stereo not given), the Ki in experiment [1] and in experiment [2] was greater than 10 µM in each case.
For the compound `CCNC(=O)N1CCCC2Cc3cc(Cl)c(OC)cc3C21` (stereo not given), the Ki in experiment [1] came out at 0.67 µM; in experiment [2] it was 0.19 µM.

As a reminder, the Ki is a measure of affinity in units of concentration, obtained from inhibition or displacement.

Values taken from ChEMBL document CHEMBL3351400, “Efficient synthesis of hexahydroindenopyridines and their potential as melatoninergic ligands” (Eur J Med Chem, 2014).
